The results in this text go back to patent publication US10765751B2, “pH sensitive carrier and preparation method thereof, and pH sensitive drug and pH sensitive drug composition each containing the carrier, and method for treating or preventing diseases using the same” (TERUMO KABUSHIKI KAISHA, priority 2012, dated 2020).

A short description of assay [1]: Leaching test: measurement of a leakage (leaching rate). Type of assay: biochemical. The conditions noted are these: hydrophobic material alone, 37° C., 90 min, mean of three ± SD. The procedure:
The leakage (leaching rate) was determined according to the method described by K. Kono et al., Bioconjugate Chem., 2008 19 1040-1048 and evaluated using an EYPC liposome including Pyranine serving as a fluorescent substance and DPX serving as a quencher.
3000 nmol of EYPC dissolved in chloroform was measured and placed in a 10 mL eggplant flask and converted to a thin film by use of a rotary evaporator (BuCHI). 500 μL of a Pyranine solution (Pyranine: 35 mM, DPX: 50 mM, MES: 25 mM, pH 7.4) was added, followed by dispersion with use of an ultrasonic irradiator (USC-J) and passage through a polycarbonate film having a pore size of 100 nm by use of an extruder to obtain a uniform particle size. Using an MES buffer (MES: 25 mM, NaCl: 125 mM, pH 7.4) and a G100 column, an outer water layer was substituted to obtain a dispersion of EYPC liposomes including the fluorescent substance. The concentration of the choline group of the phospholipid was determined by use of the phospholipid C test Wako and was adjusted by use of an MES buffer (MES: 25 mM, NaCl: 125 mM, pH 7.4) in such a way as to obtain 1.0 mmol/L of the phospholipid. […] The DOPE-Chems and DOPE-oleic acid were, respectively, measured in an acetic acid buffer (acetic acid: 25 mM, NaCl: 125 mM).
With respect to other samples, measurement at a pH of 4.0 to 3.0 was carried out by use of an acetic acid buffer.
It will be noted that the leakage was calculated in such a way that in case where the EYPC liposome dispersion alone was used, it was taken as 0% and a value obtained in case where 30 μL of a 10-fold diluted Triton-X100 was added was taken as 100%.
More particularly, the leakage was calculated according to the following equation. In the following equation, a measured fluorescence intensity is represented by L, a fluorescence intensity of a dispersion alone of EYPC liposomes including a fluorescent substance is represented by L0, and a fluorescence intensity in case where Triton-X100 was added is represented by L100. Leakage (%)=(L−L0)/(L100−L0)×100 Fusion Test: Measurement of Fusion (Membrane Fusion)

The subject of a further assay is RAW cells. Kind of assay: Evaluation of cytosolic delivery using a fluorescence-labeled peptide. Type of assay: cell-based. As to conditions: 14 μg of the fluorescence-labeled peptide/well, overnight, three hours post-incubation; FIG. 19, 20. The procedure: OVA-257-264-Rh was chosen as a model peptide. 140 μg/ml of a fluorescence-labeled peptide solution was prepared by use of PBS passed through a 0.22 μm filter and used for the preparation of a carrier. Cells used were RAW cells, and culture was carried out by use of an incubator (MCO20AIC) set at 5% CO2 and 37° C. The RAW cells were spread on a matsunami glass bottom dish on the day before the charge of the carrier and cultured in a 10% FBS-containing MEM medium.
After rinsing the cells with PBS, the medium was substituted with 1900 μL of a fresh 10% FBS-containing MEM medium, into which 100 μL of the respective samples was charged. Incubation was continued over 16 to 20 hours and the cells were rinsed at least three times with PBS. Thereafter, 2 mL of a fresh 10% FBS-containing MEM medium was added, following by three hours post-incubation. The cells were rinsed with PBS, followed by substitution with a DMEM-without-Phenol-Red medium and observation of the cells through a fluorescence microscope Axiovert 200M—soft: Axio vision 3.0—light source: Fluo Arc

Consider `CC(=O)Oc1c(C)c(C)c2c(c1C)CCC(C)(CCC[C@H](C)CCC[C@H](C)CCCC(C)C)O2` (mixture of isomers) [α-Tocopherol acetate, DL-α-tocopherol acetate], for which the “Hydrophobic material only Leakage (%)” value in assay [1] (pH 5.0) stood at 7.0 ± 2.1%; in assay [1] (pH 7.4), 5.9 ± 0.2%.

For the molecule `Cc1c(C)c2c(c(C)c1O)CCC(C)(CCCC(C)CCCC(C)CCCC(C)C)O2` (racemic) [α-Tocopherol, DL-α-tocopherol], the “Hydrophobic material only Leakage (%)” value in assay [1] (pH 5.0) worked out at 8.8 ± 0.6%; in assay [1] (pH 7.4), 5.4 ± 0.2%.

`CCCCO` [1-Butanol]: the “Hydrophobic material only Leakage (%)” value turned out to be 11.1 ± 0.5% in assay [1] (pH 5.0) and 8.8 ± 0.1% in assay [1] (pH 7.4). For the molecule `CCCCCCCCCCCCO` [1-Dodecanol], the “Hydrophobic material only Leakage (%)” value was 9.1 ± 0.8% in assay [1] (pH 5.0) and 7.9 ± 0.2% in assay [1] (pH 7.4). Consider `CCCCCCCCCCCCCCCCCCCCO` [1-Eicosanol], for which the “Hydrophobic material only Leakage (%)” value in assay [1] (pH 5.0) is given as 8.6 ± 0.5%; in assay [1] (pH 7.4), 7.6 ± 0.4%. The like results for `CCCCCCCCCCCCCCCCO` [1-Hexadodecanol, 1-Hexadecanol] were, in that order, 11.0 ± 0.5% and 9.0 ± 0.9%. Consider `CCCCCCCCO` [1-Octanol], for which the entries for the “Hydrophobic material only Leakage (%)” value in assay [1] (pH 5.0) and in assay [1] (pH 7.4) were 11.7 ± 0.1% and 9.0 ± 0.3%, respectively.

Consider `CCCCCCCCCCCCCCCC(=O)OC[C@H](O)[C@H]1OC(=O)C(O)=C1O` [Ascorbyl palmitate], for which the “Hydrophobic material only Leakage (%)” value in assay [1] (pH 5.0) amounted to 9.9 ± 1.0%; in assay [1] (pH 7.4) it was 1.7 ± 0.1%. For `O=C(OCc1ccccc1)c1ccccc1` [Benzyl benzoate], the “Hydrophobic material only Leakage (%)” value in assay [1] (pH 5.0) is reported as 9.7 ± 0.5%; in assay [1] (pH 7.4) it was 7.3 ± 2.0%. `CC(C)CCC[C@@H](C)[C@H]1CC[C@H]2[C@@H]3CC=C4C[C@@H](O)CC[C@]4(C)[C@H]3CC[C@]12C` [Cholesterol, cholesterol]: the entries for the “Hydrophobic material only Leakage (%)” value in assay [1] (pH 5.0) and in assay [1] (pH 7.4) were 7.6 ± 0.5% and 4.8 ± 0.1%, respectively.

For `CCCCCCCCCCCC(=O)OCC` [Ethyl laurate], the “Hydrophobic material only Leakage (%)” value in assay [1] (pH 5.0) is reported as 11.9 ± 1.2%; in assay [1] (pH 7.4) it was 8.7 ± 0.9%. Regarding `CCCCCCCC/C=C\CCCCCCCC(=O)OCC` [Ethyl oleate], the “Hydrophobic material only Leakage (%)” value in assay [1] (pH 5.0) is 11.2 ± 1.3%; in assay [1] (pH 7.4) it was 7.9 ± 0.2%. For `CCCCCCCC/C=C\CCCCCCCC(=O)OCC(CO)OC(=O)CCCCCCC/C=C\CCCCCCCC` (centres unmarked) [Glycerol dioleate], the “Hydrophobic material only Leakage (%)” value in assay [1] (pH 5.0) amounted to 7.4 ± 0.6%; in assay [1] (pH 7.4), 7.2 ± 0.5%. As for `CCCCCCCCCCCCCCCCCC(=O)OCC(CO)OC(=O)CCCCCCCCCCCCCCCCC` (centres unmarked) [Glycerol distearate], the “Hydrophobic material only Leakage (%)” value in assay [1] (pH 5.0) is 11.0 ± 1.4%; in assay [1] (pH 7.4), 8.0 ± 0.2%.

Take `N[C@@H](Cc1c[nH]cn1)C(=O)O` [L-Histidine, L-histidine]: the entries for the “Hydrophobic material only Leakage (%)” value in assay [1] (pH 5.0) and in assay [1] (pH 7.4) were 8.9 ± 0.5% and 6.7 ± 0.4%, respectively. With `N[C@@H](Cc1ccccc1)C(=O)O` [L-Phenylalanine], the figures for the “Hydrophobic material only Leakage (%)” value in assay [1] (pH 5.0) and in assay [1] (pH 7.4) were 10.7 ± 0.4% and 7.9 ± 0.5%, respectively. On to `OC[C@H]1O[C@@H](O[C@H]2[C@H](O)[C@@H](O)C(O)O[C@@H]2CO)[C@H](O)[C@@H](O)[C@H]1O` (some centres unmarked) [Lactose], for which the “Hydrophobic material only Leakage (%)” value in assay [1] (pH 5.0) was 8.9 ± 0.2%; in assay [1] (pH 7.4) it was 6.1 ± 0.2%. The like results for `CCCCCCCCCCCC(=O)O` [Lauric acid] were, in that order, 14.2 ± 0.4% and 6.2 ± 0.4%. As to `CCCCCCCCCC(=O)OCC(O)CO` (centres unmarked) [Monocaprin, Glycerol monocaprate], the “Hydrophobic material only Leakage (%)” value in assay [1] (pH 5.0) is 8.1 ± 0.2%; in assay [1] (pH 7.4), 4.0 ± 2.6%. On to `CCCCCCCC(=O)OCC(O)CO` (centres unmarked) [Monocaprylin, Glycerol monocaprylate], for which the results for the “Hydrophobic material only Leakage (%)” value in assay [1] (pH 5.0) and in assay [1] (pH 7.4) were 8.5 ± 0.4% and 4.9 ± 1.8%, respectively. Take `CCCCCCCCCCCC(=O)OCC(O)CO` (centres unmarked) [Monolaurin, Glycerol monolaurate]: the “Hydrophobic material only Leakage (%)” value in assay [1] (pH 5.0) turned out to be 5.6 ± 0.4%; in assay [1] (pH 7.4), 3.6 ± 0.3%. Turning to `CCCCCCCCCCCCCC(=O)OCC(O)CO` (centres unmarked) [Monomyristin, Glycerol monomyristate], the “Hydrophobic material only Leakage (%)” value was found to be 5.4 ± 0.1% in assay [1] (pH 5.0) and 3.8 ± 0.3% in assay [1] (pH 7.4). The like results for `CCCCCCCC/C=C\CCCCCCCC(=O)OCC(O)CO` (centres unmarked) [Monoolein, Glycerol monooleate] were, in that order, 8.3 ± 0.4% and 6.3 ± 0.4%.

Turning to `CCCCCCCCCCCCCCCC(=O)OCC(O)CO` (centres unmarked) [Monopalmitin, Glycerol monopalmitate], the figures for the “Hydrophobic material only Leakage (%)” value in assay [1] (pH 5.0) and in assay [1] (pH 7.4) were 8.1 ± 0.7% and 7.8 ± 2.5%, respectively.

Turning to `CCCCCCCCCCCCCCCCCC(=O)OCC(O)CO` (centres unmarked) [Monostearin, Glycerol monostearate], the “Hydrophobic material only Leakage (%)” value in assay [1] (pH 5.0) is recorded as 9.6 ± 0.6%; in assay [1] (pH 7.4), 7.9 ± 1.0%. For the molecule `CCCCCCCC/C=C\CCCCCCCC(=O)[O-].[Na+]` [Oleic acid, Sodium oleate], the “Hydrophobic material only Leakage (%)” value in assay [1] (pH 5.0) is reported as 76.0 ± 2.3%; in assay [1] (pH 7.4), 2.2 ± 0.1%. For the molecule `CCCOC(=O)c1ccc(O)cc1` [Propyl paraoxybenzoate, propyl paraoxybenzoate], the figures for the “Hydrophobic material only Leakage (%)” value in assay [1] (pH 5.0) and in assay [1] (pH 7.4) were 7.9 ± 0.1% and 5.4 ± 0.2%, respectively. As for `CC(C)CCCC(C)CCCC(C)CCCCC(C)CCCC(C)CCCC(C)C` (centres unmarked) [Squalane, squalane], the entries for the “Hydrophobic material only Leakage (%)” value in assay [1] (pH 5.0) and in assay [1] (pH 7.4) were 9.4 ± 0.5% and 7.8 ± 0.6%, respectively. On to `CC(C)=CCC/C(C)=C/CC/C(C)=C/CC/C=C(\C)CC/C=C(\C)CCC=C(C)C` [Squalene], for which the “Hydrophobic material only Leakage (%)” value in assay [1] (pH 5.0) worked out at 9.0 ± 0.5%; in assay [1] (pH 7.4), 5.4 ± 0.4%. Consider `CCCCCC(=O)OCC(COC(=O)CCCCC)OC(=O)CCCCC` [Tricaproin, tricaproin], for which the “Hydrophobic material only Leakage (%)” value in assay [1] (pH 5.0) was determined as 8.4 ± 0.9%; in assay [1] (pH 7.4) it was 6.9 ± 0.9%. Take `CCCCCCCC(=O)OCC(COC(=O)CCCCCCC)OC(=O)CCCCCCC` [Tricaprylin, tricaprylin]: the “Hydrophobic material only Leakage (%)” value in assay [1] (pH 5.0) is given as 9.0 ± 1.1%; in assay [1] (pH 7.4) it was 6.8 ± 0.9%. For Cyclodextrin, in that order: 9.0 ± 0.7% and 6.3 ± 0.6%. On to “fluorescence-labeled peptide alone: Fluorescence-labeled peptide: OVA257-264-Rh”, for which the “localisation of fluorescence-labeled peptide in cells (cytosolic delivery)” value with RAW cells is listed as “remained in the endosome”. As for sorbitan monolaurate [SPAN 20], the “Hydrophobic material only Leakage (%)” value is recorded as 10.1 ± 0.4% in assay [1] (pH 5.0) and 5.7 ± 0.7% in assay [1] (pH 7.4). In the case of sorbitan monooleate [SPAN 80], the “Hydrophobic material only Leakage (%)” value worked out at 10.0 ± 0.7% in assay [1] (pH 5.0) and 5.1 ± 0.5% in assay [1] (pH 7.4). On to sorbitan palmitic acid ester [SPAN 40], for which the “Hydrophobic material only Leakage (%)” value amounted to 20.8 ± 1.4% in assay [1] (pH 5.0) and 14.9 ± 0.8% in assay [1] (pH 7.4).

Turning to sorbitan stearic acid ester [SPAN 60], the “Hydrophobic material only Leakage (%)” value amounted to 17.5 ± 0.4% in assay [1] (pH 5.0) and 7.9 ± 0.3% in assay [1] (pH 7.4). Take sorbitan trioleic acid ester [SPAN 85]: the “Hydrophobic material only Leakage (%)” value turned out to be 17.7 ± 1.2% in assay [1] (pH 5.0) and 5.2 ± 0.4% in assay [1] (pH 7.4). Consider sorbitan tristearate [SPAN 65], for which the “Hydrophobic material only Leakage (%)” value is recorded as 13.0 ± 0.3% in assay [1] (pH 5.0) and 4.2 ± 0.4% in assay [1] (pH 7.4).
